Assays:
F508del/R1070W-CFTR = target: T1, F508del/R1070W-CFTR (Homo sapiens, UniProt P13569, DEL508-508/R1070W); assay: FLIPR membrane potential assay of CFTR channel activity in transfected HEK293 cells; type: cell-based; settings: HEK293, 24 h; ARN23765 10 nM, VX-661 3 μM
T1 construct: CFTR identification in pull-down studies and analysis of full-length CFTR in protein maturation assays; expressed in transfected cells; host or cells: HEK293 (transient)
Procedure: (§1) HS-YFP-based assay for CFTR activity
(§2) Twenty-four hours after seeding on 96-well plates, CFBE41o- cells stably over-expressing F508del-CFTR and the HS-YFP were treated with test compounds at different concentrations in the 3 nM-10 µM range.1 Cells treated with vehicle alone (DMSO) and with ARN23765, respectively, served as negative and positive controls. The following day, cells were washed with PBS containing (in mM) 137 NaCl, 2.7 KCl, 8.1 Na2HPO4, 1.5 KH2PO4, 1.0 CaCl2, and 0.5 MgCl2. Cells were then incubated for 25 min with […] of PBS plus forskolin (20 µM) and VX-770 (1 µM) to maximally stimulate F508del-CFTR. Cells were then transferred to a microplate reader (FluoStar Galaxy; BMG Labtech, Offenburg, Germany) for CFTR activity determination. The plate reader was equipped with high-quality excitation (HQ500/20X: 500 ± 10 nm) and emission (HQ535/30M: 535 ± 15 nm) filters for YFP (Chroma Technology). Each assay comprised a continuous 14 s fluorescence reading, 2 s before and 12 s after injection of […] of an iodide-containing solution (PBS with Cl- replaced by I-; final I- concentration […]). Data were normalized to the initial background-subtracted fluorescence. […]
(§3) Cell lysates or eluates from pull-down experiments were resolved by SDS-PAGE on 4-8 % tris-acetate gels (EA0378BOX, Life technologies) and were transferred into PVDF membranes (Immobilion-E IEVH00005, Millipore). […] Images were acquired with Chemidoc MP (BIO-RAD laboratories) and quantified with Image J software.
(§4) CFTR Channel function analysis by fluorometric imaging plate reader functional (FLIPR) assay FLIPR assay was performed as previously described.3 Briefly, HEK293 cells were seeded in 96-well plates (black, flat bottom, Corning) and transfected with mutated CFTR constructs. […]
(§5) µM) for 24 h at 30 °C or 37 °C. […] The plate was then read in a fluorescence plate reader (SpectraMax i3, Molecular Devices) at 37 °C (excitation: 530 nm, emission: 560 nm). […] CFTR-mediated depolarization was detected as an increase in fluorescence. […] The peak changes in fluorescence were normalized to fluorescence immediately […]

R170G-CFTR = target: T2, R170G-CFTR (Homo sapiens, UniProt P13569, R170G); assay: as above; type: cell-based; settings: HEK293, 24 h, 10 nM
T2 construct: CFTR identification in pull-down studies and analysis of full-length CFTR in protein maturation assays; expressed in transfected cells; host or cells: HEK293 (transient)
Procedure: as §1, §2, §3, §4, §5

T2 sequence (P13569 whole entry R170G): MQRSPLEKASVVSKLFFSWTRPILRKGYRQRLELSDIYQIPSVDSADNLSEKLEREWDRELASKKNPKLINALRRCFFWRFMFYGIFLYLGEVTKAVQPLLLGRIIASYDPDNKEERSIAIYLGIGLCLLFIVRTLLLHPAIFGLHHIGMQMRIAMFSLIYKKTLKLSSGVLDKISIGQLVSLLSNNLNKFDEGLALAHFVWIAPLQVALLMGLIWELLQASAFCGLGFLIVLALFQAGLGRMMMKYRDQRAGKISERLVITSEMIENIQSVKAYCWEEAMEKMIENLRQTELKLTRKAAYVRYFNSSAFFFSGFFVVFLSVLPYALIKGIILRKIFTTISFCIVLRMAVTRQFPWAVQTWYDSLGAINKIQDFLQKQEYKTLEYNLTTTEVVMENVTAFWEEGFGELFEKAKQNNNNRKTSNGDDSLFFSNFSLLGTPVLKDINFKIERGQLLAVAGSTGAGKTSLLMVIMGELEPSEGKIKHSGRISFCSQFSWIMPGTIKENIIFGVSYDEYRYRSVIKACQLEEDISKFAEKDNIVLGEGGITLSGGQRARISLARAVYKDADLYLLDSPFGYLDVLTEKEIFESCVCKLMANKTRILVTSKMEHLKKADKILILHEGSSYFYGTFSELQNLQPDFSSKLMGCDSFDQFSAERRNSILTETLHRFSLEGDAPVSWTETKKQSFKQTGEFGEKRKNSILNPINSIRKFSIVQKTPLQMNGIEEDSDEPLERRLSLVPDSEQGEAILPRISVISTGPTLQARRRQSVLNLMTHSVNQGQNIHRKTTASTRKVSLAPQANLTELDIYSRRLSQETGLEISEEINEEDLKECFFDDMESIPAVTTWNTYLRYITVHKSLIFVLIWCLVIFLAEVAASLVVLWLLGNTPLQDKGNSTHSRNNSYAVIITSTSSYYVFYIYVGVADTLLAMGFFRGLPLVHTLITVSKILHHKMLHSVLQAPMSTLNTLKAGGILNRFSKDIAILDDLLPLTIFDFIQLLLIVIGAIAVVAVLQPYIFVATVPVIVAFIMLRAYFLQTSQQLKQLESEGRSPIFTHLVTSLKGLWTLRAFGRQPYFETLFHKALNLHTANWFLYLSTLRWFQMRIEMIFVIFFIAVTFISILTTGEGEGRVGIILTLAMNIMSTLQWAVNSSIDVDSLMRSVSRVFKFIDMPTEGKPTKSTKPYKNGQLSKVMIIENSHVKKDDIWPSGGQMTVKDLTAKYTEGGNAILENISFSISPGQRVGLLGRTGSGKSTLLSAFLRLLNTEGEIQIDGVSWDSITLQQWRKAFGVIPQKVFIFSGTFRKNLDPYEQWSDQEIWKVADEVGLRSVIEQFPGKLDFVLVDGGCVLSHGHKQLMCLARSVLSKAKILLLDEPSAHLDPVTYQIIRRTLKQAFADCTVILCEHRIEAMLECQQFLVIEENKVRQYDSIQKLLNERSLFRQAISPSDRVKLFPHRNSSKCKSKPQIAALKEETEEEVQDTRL
T1 sequence (P13569 with tags, fused parts or gaps DEL508-508/R1070W): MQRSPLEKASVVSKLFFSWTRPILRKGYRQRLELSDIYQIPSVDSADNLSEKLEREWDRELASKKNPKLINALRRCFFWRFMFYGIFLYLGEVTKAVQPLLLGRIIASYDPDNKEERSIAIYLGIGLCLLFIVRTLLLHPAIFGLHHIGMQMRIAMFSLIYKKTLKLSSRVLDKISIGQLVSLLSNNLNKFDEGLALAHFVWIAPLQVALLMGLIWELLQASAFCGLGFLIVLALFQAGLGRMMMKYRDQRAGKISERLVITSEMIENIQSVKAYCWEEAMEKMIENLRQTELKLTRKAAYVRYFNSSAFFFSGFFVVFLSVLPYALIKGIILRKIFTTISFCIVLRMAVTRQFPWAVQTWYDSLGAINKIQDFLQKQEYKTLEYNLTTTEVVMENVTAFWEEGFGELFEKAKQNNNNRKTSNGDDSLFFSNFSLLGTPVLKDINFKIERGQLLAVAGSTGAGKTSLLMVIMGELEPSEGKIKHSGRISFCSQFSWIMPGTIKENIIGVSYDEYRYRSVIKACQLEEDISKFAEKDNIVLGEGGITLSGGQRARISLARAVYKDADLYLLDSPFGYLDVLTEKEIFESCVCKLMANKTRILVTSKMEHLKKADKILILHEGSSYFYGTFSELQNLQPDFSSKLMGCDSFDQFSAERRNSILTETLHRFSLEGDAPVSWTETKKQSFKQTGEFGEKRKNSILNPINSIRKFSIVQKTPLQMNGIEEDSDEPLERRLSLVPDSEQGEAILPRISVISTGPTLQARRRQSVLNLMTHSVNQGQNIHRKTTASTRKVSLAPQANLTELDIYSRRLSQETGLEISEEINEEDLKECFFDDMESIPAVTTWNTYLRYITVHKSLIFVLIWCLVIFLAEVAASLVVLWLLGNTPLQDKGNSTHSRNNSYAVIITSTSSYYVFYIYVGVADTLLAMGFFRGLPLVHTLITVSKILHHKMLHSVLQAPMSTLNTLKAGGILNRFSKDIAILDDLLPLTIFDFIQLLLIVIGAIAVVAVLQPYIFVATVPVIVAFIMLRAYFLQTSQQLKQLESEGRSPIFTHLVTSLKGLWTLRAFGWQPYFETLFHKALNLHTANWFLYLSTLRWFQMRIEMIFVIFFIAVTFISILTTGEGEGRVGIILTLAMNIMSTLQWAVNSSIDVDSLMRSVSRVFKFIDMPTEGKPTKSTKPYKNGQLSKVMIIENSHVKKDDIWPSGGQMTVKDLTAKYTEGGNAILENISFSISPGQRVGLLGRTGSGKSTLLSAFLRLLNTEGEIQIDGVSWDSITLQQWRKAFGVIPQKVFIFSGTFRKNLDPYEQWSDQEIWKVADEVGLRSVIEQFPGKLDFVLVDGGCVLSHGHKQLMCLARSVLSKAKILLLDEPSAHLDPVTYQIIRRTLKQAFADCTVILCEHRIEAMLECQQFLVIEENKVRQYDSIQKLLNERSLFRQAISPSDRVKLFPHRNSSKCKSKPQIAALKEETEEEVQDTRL

CN(C(=O)c1cccc(-n2nc(C(F)(F)F)c3c2[C@@H](Oc2ccc(C(=O)O)cc2)CCC3)c1)c1ccc2c(c1)OC(F)(F)O2 [ARN23765]
F508del/R1070W channel activity (FLIPR) (F508del/R1070W-CFTR): further enhanced | R170G-CFTR activity (FLIPR) (R170G-CFTR): improving

— publication PMC11873939, “Target Identification with Live-Cell Photoaffinity Labeling and Mechanism of Action Elucidation of ARN23765, a Highly Potent CFTR Corrector” (Journal of Medicinal Chemistry, 2025)
